Like-named read-outs stand apart in the source and are kept apart here.
Assays:
[1] = system: MES-SA human uterine sarcoma cells; assay: Cytotoxicity assay, luminescence ATP detection, MES-SA; format: cell-based; conditions: three days incubation, ATP content, highest concentration 10^-5 M, read-out: ED50 (nM) MES-SA
Procedure: (§1) The cytotoxicities of the new anthracyclines were tested in vitro with two cell lines: human uterine sarcomas MES-SA (CRL-1976; American Type Culture Collection (ATCC), Rockville, Md., USA) and MES-SA/D×5 (CRL-1977; ATCC, Rockville, Md., USA). MES-SA/D×5 has been developed by growing MES-SA cells in increasing concentrations of doxorubicin (Harker and Sikic, 1985).
(§2) Monolayer cultures were grown in McCoy's 5A medium with L-glutamine (Gibco BRL) supplemented with 10% FBS (Foetal Bovine Serum, Gibco BRL). No antibiotics were added. As the resistance is stable for at least 20 passages, the MES-SA/D×5 cells were grown without anthracycline selection (Harker and Sikic, 1985). Cells were maintained at 37° C. with 5% CO2 and subcultured every 3-5 days.
(§3) The cytotoxicity tests were performed in 96-well microtiter plates (sterile white plates with clear bottom, Corning Costar Corporation, Cambridge, Mass., USA). The anthracyclines were pipetted into the plates in 10 μl of ethanol, pure ethanol was used for control plates. Daunorubicin and aclarubicin were used as positive controls. When the ethanol had evaporated, the cells were seeded into the plates in 100 μl of appropriate medium. The number of cells seeded per well was 2500 with MES-SA, 3000 with MES-SA/D×5, 3000 with LL/2, 2000 with B16-F0 and B16-F1, 2000 with KLN-205 and 8000 with MLTC-1. The ATP content of the cells was measured after incubating the cells for three days at 37° C. with 5% CO2.
(§4) The growth medium was removed by turning the plates over, and 200 μl of ATP extraction reagent, Somalyze, were added to the wells. The plates were then incubated for 30 minutes at room temperature. The ATP measurement was performed with Luminoskan luminometer (Labsystems Oy, Helsinki, Finland) at 22° C. 20 μl of ATP monitoring reagent containing luciferin and luciferase was dispensed, and an integral measurement of 10 s with 2 s lag time was performed for each well. All reagents used were supplied by Bio-Orbit Oy, Turku, Finland.
(§5) The direct luminometer output (in relative light units, RLUS) was used to calculate the cytotoxic effect. This light signal is directly proportional to the amount of […] in a wide range (determined with Bio-Orbit ATP standard, data not shown). On the other hand, the amount of ATP is directly proportional to the amount of living cells (Kangas et al., 1984). The results are expressed as percentages of the control value of untreated cells. An IC50 value (the drug concentration resulting to an ATP signal of 50% of the untreated control signal) was graphically estimated from the % of control vs. drug concentration plot.

[2] = system: MES-SA/D×5 uterine sarcoma cells (doxorubicin-resistant, MDR); assay: Cytotoxicity assay, luminescence ATP detection, MES-SA/D×5; format: cell-based, human; conditions: MES-SA/D×5 cells, three days incubation, ATP content, highest concentration 10^-5 M, read-out: ED50 (nM) MES-SA/D × 5
Procedure: as §1, §2, §3, §4, §5

B16-F0 melanoma = assay: Cytotoxicity assay, ATP detection, B16-F0; format: cell-based, mouse; conditions: B16-F0 cells in vitro, read-out: ED50 B16-F0
Procedure: as §3, §4, §5
(§6) H075-4a was also tested with several mouse cell lines in vitro (all were purchased from ATCC, Rockville, Md., USA): Lewis lung carcinoma (LL/2) (CRL-1642), B16-F0 melanoma (CRL-6322), B16-F1 melanoma (CRL-6323), KLN-205 lung squamous cell carcinoma (CRL-1453) and MLTC-1 leydig cell tumor (CRL-2065) using daunomycin, aclarubicin and H075-1a (MA 144U1) as references.
(§7) All cells grew as monolayers and were cultured at 37° C. with 5% CO2 according to ATCC standard instructions for each cell line: LL/2 in Dulbecco's modified Eagle's medium with 4.5 g/l glucose and 10% FCS, B16-F0 and B16-F1 in MEM (Eagle) in Earle's BSS with non-essential amino acids and 10% FCS, KLN-205 in MEM (Eagle) in Earle's BSS with non-essential amino acids and 10% FCS, MLTC-1 in RPMI 1640 with 25 mM HEPES and 10% FBS. All media were purchased from Gibco BRL, the serum was Gibco BRL Foetal Bovine Serum. […]

[3] = system: KLN-205 lung squamous cell carcinoma; assay: Cytotoxicity assay, ATP detection, KLN-205; format: cell-based, mouse; conditions: KLN-205 cells in vitro, read-out: ED50 KLN-205
Procedure: as §3, §4, §5, §6, §7

MLTC-1 leydig cell tumor = assay: Cytotoxicity assay, ATP detection, MLTC-1; format: cell-based, mouse; conditions: MLTC-1 cells in vitro, read-out: ED50 MLTC-1
Procedure: as §3, §4, §5, §6, §7

SMILES: CCC1(O)CC(OC2CC(N(C)C)C(OC3CC(O)C(OC4CC(O)C(O)C(C)O4)C(C)O3)C(C)O2)c2c(O)c3c(c(O)c2C1C(=O)OC)C(=O)c1cccc(O)c1C3=O (stereo not shown) [Compound H075-4a]
- EC50 [1]: 1 nM
- EC50 [2]: 50 nM
- EC50 (B16-F0 melanoma): 2 nM
- EC50 [3]: 5 nM
- EC50 (MLTC-1 leydig cell tumor): 60 nM

SMILES: COc1cccc2c1C(=O)c1c(O)c3c(c(O)c1C2=O)C[C@@](O)(C(C)=O)C[C@@H]3O[C@H]1C[C@H](N)[C@H](O)[C@H](C)O1 [Daunorubicin]
- EC50 ([1]; Homo sapiens, 72 h): 8 nM
- EC50 ([2]; Homo sapiens, 72 h): 220 nM
- EC50 (B16-F0 melanoma; Mus musculus, B16F0): 20 nM
- EC50 ([3]; Mus musculus): 90 nM
- EC50 (MLTC-1 leydig cell tumor; Mus musculus, Leydig): 900 nM
